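Tested at 5 concentrations; 48 h exposure; 96-well plates; endpoints linearly interpolated, else capped at highest concentration. Here, GI50 denotes the concentration required for 50% inhibition of growth. At the TGI there is no net growth.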
What was measured:
Assay in all cases: NCI-60 cell line screen, 48 h
SK-MEL-28 melanoma = system: SK-MEL-28 melanoma
MOLT-4 leukemia = system: MOLT-4 leukemia
RPMI-8226 leukemia = system: RPMI-8226 leukemia
NCI/ADR-RES ovarian = system: NCI/ADR-RES ovarian
SK-OV-3 ovarian = system: SK-OV-3 ovarian
HS 578T breast = system: HS 578T breast
MCF7 breast = system: MCF7 breast
CCRF-CEM leukemia = system: CCRF-CEM leukemia
UO-31 renal = system: UO-31 renal
OVCAR-4 ovarian = system: OVCAR-4 ovarian
LOX IMVI melanoma = system: LOX IMVI melanoma
SN12C renal = system: SN12C renal
SR leukemia = system: SR leukemia
A549 NSCLC = system: A549 NSCLC
MDA-MB-435 = system: MDA-MB-435
HL-60(TB) leukemia = system: HL-60(TB) leukemia
SF-268 CNS = system: SF-268 CNS
NCI-H522 lung = system: NCI-H522 lung
BT-549 breast = system: BT-549 breast
U251 CNS = system: U251 CNS
786-0 renal = system: 786-0 renal
HCT-15 colon = system: HCT-15 colon
M14 melanoma = system: M14 melanoma
HCC-2998 colon = system: HCC-2998 colon
SW-620 colon = system: SW-620 colon
SNB-19 CNS = system: SNB-19 CNS
KM12 colon = system: KM12 colon
HCT-116 colon = system: HCT-116 colon
K-562 leukemia = system: K-562 leukemia
COLO 205 colon = system: COLO 205 colon
HOP-62 NSCLC = system: HOP-62 NSCLC
OVCAR-5 ovarian = system: OVCAR-5 ovarian
ACHN renal = system: ACHN renal
UACC-257 melanoma = system: UACC-257 melanoma
NCI-H460 lung = system: NCI-H460 lung
SK-MEL-2 melanoma = system: SK-MEL-2 melanoma
OVCAR-8 ovarian = system: OVCAR-8 ovarian
TK-10 renal = system: TK-10 renal
MDA-MB-231 breast = system: MDA-MB-231 breast
SNB-75 CNS = system: SNB-75 CNS
T-47D breast = system: T-47D breast
HT29 colon = system: HT29 colon
A498 renal = system: A498 renal
MALME-3M melanoma = system: MALME-3M melanoma
HOP-92 NSCLC = system: HOP-92 NSCLC
SF-295 CNS = system: SF-295 CNS
CAKI-1 renal = system: CAKI-1 renal
OVCAR-3 ovarian = system: OVCAR-3 ovarian
RXF 393 renal = system: RXF 393 renal
SF-539 CNS = system: SF-539 CNS
NCI-H226 lung = system: NCI-H226 lung
IGROV1 ovarian = system: IGROV1 ovarian
DU-145 prostate = system: DU-145 prostate
SK-MEL-5 melanoma = system: SK-MEL-5 melanoma

SMILES: Cc1cccc2nc3ccccc3c(Nc3ccc(NS(C)(=O)=O)cc3)c12
- GI50 (SK-MEL-28 melanoma): 13.8 µM
- TGI (SK-MEL-28 melanoma): 29.6 µM
- GI50 (MOLT-4 leukemia): 1.72 µM
- TGI (MOLT-4 leukemia): 5.91 µM
- GI50 (RPMI-8226 leukemia): 2.68 µM
- TGI (RPMI-8226 leukemia): 9.19 µM
- GI50 (NCI/ADR-RES ovarian): 15.8 µM
- TGI (NCI/ADR-RES ovarian): 48.8 µM
- GI50 (SK-OV-3 ovarian): 6.22 µM
- TGI (SK-OV-3 ovarian): 55.5 µM
- GI50 (HS 578T breast): 8.88 µM
- TGI (HS 578T breast): 31.7 µM
- GI50 (MCF7 breast): 3.62 µM
- TGI (MCF7 breast): 21.7 µM
- GI50 (CCRF-CEM leukemia): 3.26 µM
- TGI (CCRF-CEM leukemia): 12.2 µM
- GI50 (UO-31 renal): 2.61 µM
- TGI (UO-31 renal): 12.4 µM
- GI50 (OVCAR-4 ovarian): 13 µM
- TGI (OVCAR-4 ovarian): 49.5 µM
- GI50 (LOX IMVI melanoma): 3.38 µM
- TGI (LOX IMVI melanoma): 15.1 µM
- GI50 (SN12C renal): 3.55 µM
- TGI (SN12C renal): 15.4 µM
- GI50 (SR leukemia): 1.51 µM
- TGI (SR leukemia): 6.7 µM
- GI50 (A549 NSCLC): 1.88 µM
- TGI (A549 NSCLC): 12.4 µM
- GI50 (MDA-MB-435): 13.5 µM
- TGI (MDA-MB-435): 34.2 µM
- GI50 (HL-60(TB) leukemia): 2.05 µM
- TGI (HL-60(TB) leukemia): 5.53 µM
- GI50 (SF-268 CNS): 10.2 µM
- TGI (SF-268 CNS): 30.2 µM
- GI50 (NCI-H522 lung): 8.09 µM
- TGI (NCI-H522 lung): 22 µM
- GI50 (BT-549 breast): 14.3 µM
- TGI (BT-549 breast): 27.7 µM
- GI50 (U251 CNS): 3.15 µM
- TGI (U251 CNS): 13.5 µM
- GI50 (786-0 renal): 5.03 µM
- TGI (786-0 renal): 16.6 µM
- GI50 (HCT-15 colon): 5.89 µM
- TGI (HCT-15 colon): 31.6 µM
- GI50 (M14 melanoma): 9.95 µM
- TGI (M14 melanoma): 23 µM
- GI50 (HCC-2998 colon): 8.09 µM
- TGI (HCC-2998 colon): 21.4 µM
- GI50 (SW-620 colon): 4.27 µM
- TGI (SW-620 colon): 20.3 µM
- GI50 (SNB-19 CNS): 6.98 µM
- TGI (SNB-19 CNS): 56.2 µM
- GI50 (KM12 colon): 6.19 µM
- TGI (KM12 colon): 22.4 µM
- GI50 (HCT-116 colon): 3.67 µM
- TGI (HCT-116 colon): 15.9 µM
- GI50 (K-562 leukemia): 5.62 µM
- TGI (K-562 leukemia): 26.8 µM
- GI50 (COLO 205 colon): 7.61 µM
- TGI (COLO 205 colon): 24 µM
- GI50 (HOP-62 NSCLC): 4.69 µM
- TGI (HOP-62 NSCLC): 17 µM
- GI50 (OVCAR-5 ovarian): 16.4 µM
- TGI (OVCAR-5 ovarian): 38.9 µM
- GI50 (ACHN renal): 2.69 µM
- TGI (ACHN renal): 11 µM
- GI50 (UACC-257 melanoma): 10.4 µM
- TGI (UACC-257 melanoma): 22.9 µM
- GI50 (NCI-H460 lung): 2.45 µM
- TGI (NCI-H460 lung): 11.7 µM
- GI50 (SK-MEL-2 melanoma): 16.9 µM
- TGI (SK-MEL-2 melanoma): 31.8 µM
- GI50 (OVCAR-8 ovarian): 6.23 µM
- TGI (OVCAR-8 ovarian): 30.9 µM
- GI50 (TK-10 renal): 6.58 µM
- TGI (TK-10 renal): 21 µM
- GI50 (MDA-MB-231 breast): 9.57 µM
- TGI (MDA-MB-231 breast): 24.2 µM
- GI50 (SNB-75 CNS): 13 µM
- TGI (SNB-75 CNS): 52.2 µM
- GI50 (T-47D breast): 7.59 µM
- TGI (T-47D breast): 24 µM
- GI50 (HT29 colon): 5.18 µM
- TGI (HT29 colon): 24.8 µM
- GI50 (A498 renal): 3.81 µM
- TGI (A498 renal): 19.4 µM
- GI50 (MALME-3M melanoma): 4.99 µM
- TGI (MALME-3M melanoma): 19.4 µM
- GI50 (HOP-92 NSCLC): 2.17 µM
- TGI (HOP-92 NSCLC): 11.1 µM
- GI50 (SF-295 CNS): 5.2 µM
- TGI (SF-295 CNS): 47.5 µM
- GI50 (CAKI-1 renal): 3.63 µM
- TGI (CAKI-1 renal): 19.9 µM
- GI50 (OVCAR-3 ovarian): 14.1 µM
- TGI (OVCAR-3 ovarian): 37 µM
- GI50 (RXF 393 renal): 10.8 µM
- TGI (RXF 393 renal): 23.6 µM
- GI50 (SF-539 CNS): 10.3 µM
- TGI (SF-539 CNS): 22.8 µM
- GI50 (NCI-H226 lung): 2.2 µM
- TGI (NCI-H226 lung): 7.15 µM
- GI50 (IGROV1 ovarian): 4.3 µM
- TGI (IGROV1 ovarian): 38.6 µM
- GI50 (DU-145 prostate): 3.76 µM
- TGI (DU-145 prostate): 22.6 µM
- GI50 (SK-MEL-5 melanoma): 4.91 µM
- TGI (SK-MEL-5 melanoma): 17.5 µM

Source: PubChem BioAssay (NCI)
